Patent US20100092526A1, “NANOEMULSION THERAPEUTIC COMPOSITIONS AND METHODS OF USING THE SAME” (NanoBio Corporation, priority 2008, published 2010)
Read-outs that look alike come from different tables or passages of the source.

Experiments:
Burkholderia cepacia = assay: MIC/MBC of nanoemulsions against gram-negative isolates (CLSI, alamar blue); type: cell-based; settings: Burkholderia cepacia (n = 5)
Escherichia coli = assay: as above; type: cell-based; settings: Escherichia coli (n = 5)
Pseudomonas aeruginosa [1] = assay: as above; type: cell-based; settings: Pseudomonas aeruginosa (n = 5)
Proteus mirabilis = assay: as above; type: cell-based; settings: Proteus mirabilis (n = 5)
[2] = test system: Stenotrophomonas maltophilia; assay: as above; type: cell-based; settings: Stenotrophomonas maltophilia (n = 5)
Acinetobacter baumannii [3] = assay: MIC/MBC against clinical isolates (CLSI, alamar blue); settings: Acinetobacter baumannii
Burkholderia cenocepacia = assay: MIC/MBC against CF isolates (CLSI, alamar blue); settings: Burkholderia cenocepacia
Acinetobacter baumannii [4] = assay: MIC/MBC of nanoemulsions against gram-negative isolates (CLSI, alamar blue); type: cell-based; settings: Acinetobacter baumannii (n = 5)
Pseudomonas aeruginosa [5] = assay: MIC/MBC against CF isolates (CLSI, alamar blue); settings: Pseudomonas aeruginosa
Klebsiella pneumoniae = assay: MIC/MBC of nanoemulsions against gram-negative isolates (CLSI, alamar blue); type: cell-based; settings: Klebsiella pneumoniae (n = 5)
[6] = test system: Stenotrophomonas maltophilia; assay: MIC/MBC against CF isolates (CLSI, alamar blue); settings: Stenotrophomonas maltophilia
[7] = nanoemulsions in the presence of 5 mM EDTA
[8] = nanoemulsions in the presence of 5 mM EDTA, in µg/mL
[9] = CF Stenotrophomonas isolate NB41
[10] = CF Stenotrophomonas isolate NB42
[11] = CF Stenotrophomonas isolate NB43
[12] = CF Stenotrophomonas isolate NB44
[13] = CF Stenotrophomonas isolate NB45
[14] = CF Stenotrophomonas isolate Steno 1
[15] = CF Stenotrophomonas isolate Steno 2
[16] = CF Stenotrophomonas isolate Steno 3
[17] = CF Stenotrophomonas isolate Steno 4
[18] = CF Stenotrophomonas isolate Steno 6
[19] = CF Stenotrophomonas isolate Steno 8

C[C@H]1COc2c(N3CCN(C)CC3)c(F)cc3c(=O)c(C(=O)O)cn1c23 [Levofloxacin]
0.0%: % resistant (Burkholderia cepacia) | % resistant (Pseudomonas aeruginosa [1]) | % resistant (Proteus mirabilis)
2 µg/mL: MIC50 (Burkholderia cepacia; [7]) | MBC (Burkholderia cenocepacia; CF Burkholderia isolate NB21) | MIC (Burkholderia cenocepacia; CF Burkholderia isolate NB21) | MBC (Burkholderia cenocepacia; CF Burkholderia isolate NB28b) | MBC (Pseudomonas aeruginosa [5]; CF Pseudomonas isolate NB13) | MIC (Pseudomonas aeruginosa [5]; CF Pseudomonas isolate NB15) | MIC (Pseudomonas aeruginosa [5]; CF Pseudomonas isolate NB16) | MIC (Pseudomonas aeruginosa [5]; CF Pseudomonas isolate NB19) | MIC50 [6] | MIC [6, 9] | MIC [6, 11] | MBC [6, 13] | MBC [6, 17] | MIC [6, 18] | MBC [6, 19] | MIC [6, 19]
100.0%: % susceptible (Burkholderia cepacia) | % susceptible (Proteus mirabilis)
16 µg/mL: MIC50 (Acinetobacter baumannii [3]) | MBC (Acinetobacter baumannii [3]; Acinetobacter isolate NB31) | MIC (Acinetobacter baumannii [3]; Acinetobacter isolate NB31) | MBC (Acinetobacter baumannii [3]; Acinetobacter isolate NB34) | MIC (Acinetobacter baumannii [3]; Acinetobacter isolate NB34) | MBC (Acinetobacter baumannii [3]; Acinetobacter isolate NB37) | MIC (Acinetobacter baumannii [3]; Acinetobacter isolate NB37) | MBC (Acinetobacter baumannii [3]; Acinetobacter isolate NB39) | MIC (Acinetobacter baumannii [3]; Acinetobacter isolate NB39) | MBC (Acinetobacter baumannii [3]; read-out: MBC 50, 10 Acinetobacter isolates) | MBC (Burkholderia cenocepacia; CF Burkholderia isolate NB24) | MBC (Pseudomonas aeruginosa [5]; CF Pseudomonas isolate NB11) | MIC (Pseudomonas aeruginosa [5]; CF Pseudomonas isolate NB14) | MBC (Pseudomonas aeruginosa [5]; CF Pseudomonas isolate NB17) | MIC (Pseudomonas aeruginosa [5]; CF Pseudomonas isolate NB17) | MBC (Pseudomonas aeruginosa [5]; read-out: MBC 90, 20 CF Pseudomonas isolates) | MBC (Pseudomonas aeruginosa [5]; read-out: MBC 90, second MBC 90 line of the summary, Stenotrophomonas, values equal those of the CF Pseudomonas isolates) | MBC [6] | MBC [6, 10] | MBC [6, 12]
4 µg/mL: MBC (Burkholderia cenocepacia; CF Burkholderia isolate NB22) | MIC (Burkholderia cenocepacia; CF Burkholderia isolate NB25) | MIC (Burkholderia cenocepacia; CF Burkholderia isolate NB27) | MBC (Burkholderia cenocepacia; CF Burkholderia isolate NB29) | MBC (Pseudomonas aeruginosa [5]; CF Pseudomonas isolate NB15) | MIC (Pseudomonas aeruginosa [5]; CF Pseudomonas isolate NB18) | MBC (Pseudomonas aeruginosa [5]; CF Pseudomonas isolate NB19) | MBC [6, 9] | MBC [6, 11] | MBC [6, 14] | MIC [6, 15] | MBC [6, 16] | MBC [6, 18] | MBC ([6]; read-out: MBC 50, 11 CF Stenotrophomonas isolates)
20.0%: % resistant [2] | % resistant (Acinetobacter baumannii [4]) | % resistant (Klebsiella pneumoniae)
0.03 µg/mL: MIC50 (Escherichia coli; [7])
0.12 µg/mL: MIC50 (Proteus mirabilis; [7])
1 µg/mL: MIC50 (Pseudomonas aeruginosa [1]; [7]) | MBC (Acinetobacter baumannii [3]; Acinetobacter isolate NB36) | MIC (Acinetobacter baumannii [3]; Acinetobacter isolate NB36) | MIC (Burkholderia cenocepacia; CF Burkholderia isolate NB22) | MIC (Burkholderia cenocepacia; CF Burkholderia isolate NB28b) | MIC (Burkholderia cenocepacia; CF Burkholderia isolate NB29) | MBC (Burkholderia cenocepacia; CF Burkholderia isolate NB30) | MIC (Burkholderia cenocepacia; CF Burkholderia isolate NB30) | MBC (Pseudomonas aeruginosa [5]; CF Pseudomonas isolate NB1) | MBC (Pseudomonas aeruginosa [5]; CF Pseudomonas isolate NB5) | MBC (Pseudomonas aeruginosa [5]; CF Pseudomonas isolate NB6) | MBC (Pseudomonas aeruginosa [5]; CF Pseudomonas isolate NB7) | MBC (Pseudomonas aeruginosa [5]; CF Pseudomonas isolate NB12) | MBC (Pseudomonas aeruginosa [5]; CF Pseudomonas isolate NB20) | MBC (Pseudomonas aeruginosa [5]; read-out: MBC 50, 20 CF Pseudomonas isolates) | MBC (Pseudomonas aeruginosa [5]; read-out: MBC 50, second MBC 50 line of the summary, Stenotrophomonas, values equal those of the CF Pseudomonas isolates) | MIC [6, 13] | MIC [6, 14] | MIC [6, 16]
8 µg/mL: MBC (Acinetobacter baumannii [3]; Acinetobacter isolate NB32) | MIC (Acinetobacter baumannii [3]; Acinetobacter isolate NB32) | MBC (Acinetobacter baumannii [3]; Acinetobacter isolate NB33) | MIC (Acinetobacter baumannii [3]; Acinetobacter isolate NB33) | MIC (Acinetobacter baumannii [3]; Acinetobacter isolate NB38) | MIC (Burkholderia cenocepacia; CF Burkholderia isolate NB23) | MIC (Burkholderia cenocepacia; CF Burkholderia isolate NB24) | MBC (Burkholderia cenocepacia; CF Burkholderia isolate NB25) | MBC (Burkholderia cenocepacia; CF Burkholderia isolate NB26) | MIC (Burkholderia cenocepacia; CF Burkholderia isolate NB26) | MBC (Burkholderia cenocepacia; CF Burkholderia isolate NB27) | MIC90 (Pseudomonas aeruginosa [5]) | MIC (Pseudomonas aeruginosa [5]; CF Pseudomonas isolate NB11) | MBC (Pseudomonas aeruginosa [5]; CF Pseudomonas isolate NB16) | MBC (Pseudomonas aeruginosa [5]; CF Pseudomonas isolate NB18) | MIC90 [6] | MIC [6, 10] | MIC [6, 12] | MBC [6, 15]
> 16 µg/mL: MIC90 (Acinetobacter baumannii [3]) | MBC (Acinetobacter baumannii [3]; Acinetobacter isolate NB35) | MIC (Acinetobacter baumannii [3]; Acinetobacter isolate NB35) | MBC (Acinetobacter baumannii [3]; Acinetobacter isolate NB38) | MBC (Acinetobacter baumannii [3]; Acinetobacter isolate NB40) | MIC (Acinetobacter baumannii [3]; Acinetobacter isolate NB40) | MBC (Burkholderia cenocepacia; CF Burkholderia isolate NB23) | MBC (Pseudomonas aeruginosa [5]; CF Pseudomonas isolate NB14)
1-2: MIC Range (Burkholderia cepacia; [8])
0.06-2: MIC Range (Proteus mirabilis; [8])
60.0%: % susceptible (Escherichia coli) | % susceptible [2]
0.5-8: MIC Range [2, 8]
0.06-8: MIC Range (Klebsiella pneumoniae; [8])
0.06 µg/mL: MIC50 (Klebsiella pneumoniae; [7])
0.25-4: MIC Range (Pseudomonas aeruginosa [1]; [8])
0.5 µg/mL: MIC50 [2, 7] | MIC50 (Pseudomonas aeruginosa [5]) | MIC (Pseudomonas aeruginosa [5]; CF Pseudomonas isolate NB1) | MBC (Pseudomonas aeruginosa [5]; CF Pseudomonas isolate NB2) | MIC (Pseudomonas aeruginosa [5]; CF Pseudomonas isolate NB2) | MBC (Pseudomonas aeruginosa [5]; CF Pseudomonas isolate NB3) | MBC (Pseudomonas aeruginosa [5]; CF Pseudomonas isolate NB4) | MIC (Pseudomonas aeruginosa [5]; CF Pseudomonas isolate NB5) | MIC (Pseudomonas aeruginosa [5]; CF Pseudomonas isolate NB6) | MIC (Pseudomonas aeruginosa [5]; CF Pseudomonas isolate NB7) | MBC (Pseudomonas aeruginosa [5]; CF Pseudomonas isolate NB8) | MIC (Pseudomonas aeruginosa [5]; CF Pseudomonas isolate NB8) | MBC (Pseudomonas aeruginosa [5]; CF Pseudomonas isolate NB9) | MIC (Pseudomonas aeruginosa [5]; CF Pseudomonas isolate NB9) | MBC (Pseudomonas aeruginosa [5]; CF Pseudomonas isolate NB10) | MIC (Pseudomonas aeruginosa [5]; CF Pseudomonas isolate NB10) | MIC (Pseudomonas aeruginosa [5]; CF Pseudomonas isolate NB13) | MIC (Pseudomonas aeruginosa [5]; CF Pseudomonas isolate NB20) | MIC [6, 17]
80.0%: % susceptible (Pseudomonas aeruginosa [1]) | % susceptible (Acinetobacter baumannii [4]) | % susceptible (Klebsiella pneumoniae)
0.25 µg/mL: MIC50 (Acinetobacter baumannii [4]; [7]) | MIC (Pseudomonas aeruginosa [5]; CF Pseudomonas isolate NB3) | MIC (Pseudomonas aeruginosa [5]; CF Pseudomonas isolate NB4) | MIC (Pseudomonas aeruginosa [5]; CF Pseudomonas isolate NB12)
40.0%: % resistant (Escherichia coli)
